# Tested on: Caco-2 cells
# Assay: GSH levels and glutathione- and oxidative stress-related enzyme activities in Caco-2 cells growing in vivo
# Design: species or system human
# Conditions: Caco-2, in vivo Pter, day 28
# Method: To measure enzyme activity, isolated tumor cells were homogenized in 0.1 M phosphate buffer (pH 7.2) at 4° C. GCL and GSS activities were measured as described previously (Obrador, E. et al. Hepatology 35, 74-81 (2002)). GPX (selenium dependent) activity was measured as described by Flohé and Gunzler (Flohe, L. & Gunzler, W. A. Methods Enzymol 105, 114-121 (1984)) using H2O2 as a substrate. GSR activity was determined as described by Akerboom and Sies (Akerboom, T. P. et al, Bull Eur Physiopathol Respir 17 Suppl, 221-227 (1981)). GGT activity was measured as described previously (Obrador, E. et al. Hepatology 35, 74-81 (2002)). GST activity was measured using an assay kit from Sigma. TXNRD activity, defined by the concentration of sodium-lipoate (disulfide) reduced to dehydrolipoate (dithiol) per milligram protein, was measured as previously described (Javvadi, P. et al. Cancer Res 70, 1941-1950 (2010)). SOD activity was measured as described by Flohé and Otting (Flohe, L. & Otting, F. Methods Enzymol 105, 93-104 (1984).) using 2 mM cyanide in the assay medium to distinguish mangano-type enzyme (SOD2) from the cuprozinc type (SOD1). CAT activity was analyzed as described by Aebi (Aebi, H. Methods Enzymol 105, 121-126 (1984)). NOX activity was measured by chemiluminescence following the methodology of Wind et al. (Wind, S. et al. Comparative pharmacology of chemically distinct NADPH oxidase inhibitors. Br J Pharmacol 161, 885-898 (2010)). Protein concentration was determined with the Pierce BCA protein assay (Fisher Scientific, Waltham, Mass.).
# GSH, GSSG, NADP^+ and NADPH Determination.
# GSH and GSSG were determined, following procedures previously described (Obrador, E. et al. PLoS One 9, e96466 (2014)), by LC/MS using the same equipment described above for pterostilbene determination. Cell processing was performed according to published methodology, where rapid N-ethylmaleimide derivatization was used to prevent GSH auto-oxidation (Asensi, M. et al. Anal Biochem 217, 323-328 (1994)). NADP^+ and NADPH were quantitated using an assay kit from Sigma (St. Louis, Mo.).
# Isolation of Tumor Cells from Mouse Xenografts Using Enzymatic Digestion and a double Ficoll gradient.
# To maximize the amount of isolated cells, avoiding the use of RFP-transfected cells and subsequent laser microdissection, an alternative methodology was set up. To maximize cell yield and viability the following combination of enzymes was used: collagenase III (200 U/ml; Sigma-Aldrich), DNase I (200 U/ml; Sigma-Aldrich) and trypsin (5 mg/ml; Invitrogen), and a non-enzymatic dissociation buffer (NEDB, Invitrogen). Briefly, mice were killed, and tumors were removed (avoiding skin, muscle and fat) into cold culture media and processed immediately. The tumors were minced into 1-3 mm fragments, which were then incubated with the dissociation solution (see above) for 30 min at 37° C. The tumor fragments were mixed up and down every 10 min using a […] micropipette with a tip cut to a diameter adapted to tissue fragment size. After each incubation period, the fragments were filtered through a […] nylon mesh cell strainer (BD Biosciences, San Diego, Calif., USA). The released cells were centrifuged at 1200 r.p.m. for 2 min and stored in cold CO2-independent medium with 30% FCS at […]. Fresh dissociation solution was added to the remaining tissue fragments for 30 min. Dissociation was stopped when no additional cells were released. The fragments were pushed through a sieve and all cells from all incubation periods were pooled and counted.
# The dissociated cells were layered onto a double Ficoll gradient (Histopaque; Sigma-Aldrich; densities 1.077 and 1.119) and spun at 700 g for 30 min at room temperature. Cells removed from both interfaces were pooled and washed two times in CO2-independent medium and stored at 4° C. Debris and red blood cell elimination was improved with the dual-density gradient. […]
smiles,measurement,value
"COc1cc(/C=C/c2ccc(O)cc2)cc(OC)c1 [Pter, trans-3,5-dimethoxy-4′-hydroxystilbene]",CAT,0.7 ± 0.2 mU/10^6 cells
same,GCL,45 ± 14 mU/10^6 cells
same,GSH,8 ± 3 nmol/10^6 cells
same,GSS,5.5 ± 1.9 mU/10^6 cells
same,GSSG,0.2 ± 0.1 nmol/10^6 cells
same,SOD1,0.8 ± 0.3 U/10^6 cells
same,SOD2,0.04 ± 0.01 U/10^6 cells

# — patent publication US11179348B2, “Combination comprising pterostilbene for the treatment of cancer” (FUNDACIÓN UNIVERSIDAD CATÓLICA DE VALENCIA SAN VICENTE …, priority 2015, dated 2021)
